From ChEMBL document CHEMBL1201862, “PubChem BioAssay data set” (2004)
Active and inactive are the calls of the source.

Assays:
[1] = FACS-based assay to assess parasite growth inhibition 48 hr Measured in Cell-Based System Using Flow Cytometry - 2126-03_Inhibitor_Dose_DryPowder_Activity. [Related pubchem assays (depositor defined):AID488774]; type: functional; conditions: Homo sapiens
[2] = A cell-based HTS for delayed death inhibitors of the malarial parasite plastid Measured in Microorganism System Using Plate Reader - 2126-01_Inhibitor_Dose_DryPowder_Activity.; type: functional, organism-based
[3] = A cell-based HTS for delayed death inhibitors of the malarial parasite plastid Measured in Microorganism System Using Plate Reader - 2126-02_Inhibitor_Dose_DryPowder_Activity.; type: functional, organism-based
Erythrocyte = experiment: FACS-based assay to assess parasite growth inhibition 96 hr Measured in Cell-Based System Using Flow Cytometry - 2126-05_Inhibitor_Dose_DryPowder_Activity. [Related pubchem assays (depositor defined):AID488774]; type: functional; conditions: Homo sapiens
[4] = molecular target: Cell division cycle 7-related protein kinase (Homo sapiens, UniProt O00311); type: functional;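 note: value obtained from a kinome-wide kinase panel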
Cell division cycle 7-related protein kinase, sequence (O00311 whole entry): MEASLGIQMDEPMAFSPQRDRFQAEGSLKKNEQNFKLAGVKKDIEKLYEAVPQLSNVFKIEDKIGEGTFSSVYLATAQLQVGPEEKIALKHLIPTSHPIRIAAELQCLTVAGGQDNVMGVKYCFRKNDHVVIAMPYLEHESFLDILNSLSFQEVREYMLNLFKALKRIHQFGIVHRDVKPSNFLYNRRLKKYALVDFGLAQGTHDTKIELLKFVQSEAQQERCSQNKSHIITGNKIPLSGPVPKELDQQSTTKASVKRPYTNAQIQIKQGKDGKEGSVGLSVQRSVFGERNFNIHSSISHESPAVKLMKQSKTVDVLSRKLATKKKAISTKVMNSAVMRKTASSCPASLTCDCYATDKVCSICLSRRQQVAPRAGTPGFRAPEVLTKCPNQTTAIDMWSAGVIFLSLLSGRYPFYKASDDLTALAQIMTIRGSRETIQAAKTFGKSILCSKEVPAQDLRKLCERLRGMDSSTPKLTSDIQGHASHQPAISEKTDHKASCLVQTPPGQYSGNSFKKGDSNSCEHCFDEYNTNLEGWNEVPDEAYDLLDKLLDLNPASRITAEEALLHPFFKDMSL

[5] = molecular target: G protein-coupled receptor kinase 5 (Homo sapiens, UniProt P34947); experiment: Navigating the Kinome. Panel member name: GPRK5; type: functional
[6] = molecular target: Melanin-concentrating hormone receptor 1 (Homo sapiens, UniProt Q99705); experiment: Late-stage fluorescence-based counterscreen for antagonists of the G-protein coupled receptor 7 (GPR7): cell-based dose response assay to identify antagonists of the melanin-concentrating hormone receptor 1 (MCHR1) Set 5.; type: functional
Melanin-concentrating hormone receptor 1, sequence (Q99705 whole entry): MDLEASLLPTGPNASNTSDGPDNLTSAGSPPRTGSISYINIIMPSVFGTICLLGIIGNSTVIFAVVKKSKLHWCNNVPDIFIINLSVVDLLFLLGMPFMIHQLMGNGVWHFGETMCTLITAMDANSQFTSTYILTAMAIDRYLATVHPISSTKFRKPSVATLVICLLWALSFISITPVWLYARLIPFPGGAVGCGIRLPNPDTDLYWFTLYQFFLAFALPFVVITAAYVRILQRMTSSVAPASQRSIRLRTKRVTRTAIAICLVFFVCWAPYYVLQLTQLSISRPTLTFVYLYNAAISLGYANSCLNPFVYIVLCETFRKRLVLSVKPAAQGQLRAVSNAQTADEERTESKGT

[7] = molecular target: Neuropeptides B/W receptor type 1 (Homo sapiens, UniProt P48145); experiment: human NPBW1 receptor blockade, IC50 – cell-based, fluorescence, dose response, set 5, late-stage follow-up (AID 588566); type: functional
Aurora kinase A = Aurora kinase A (Homo sapiens, UniProt O14965); type: functional;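 note: value from the Navigating the Kinome kinase panel profiling, panel entry STK6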
Aurora kinase A, sequence (O14965 whole entry): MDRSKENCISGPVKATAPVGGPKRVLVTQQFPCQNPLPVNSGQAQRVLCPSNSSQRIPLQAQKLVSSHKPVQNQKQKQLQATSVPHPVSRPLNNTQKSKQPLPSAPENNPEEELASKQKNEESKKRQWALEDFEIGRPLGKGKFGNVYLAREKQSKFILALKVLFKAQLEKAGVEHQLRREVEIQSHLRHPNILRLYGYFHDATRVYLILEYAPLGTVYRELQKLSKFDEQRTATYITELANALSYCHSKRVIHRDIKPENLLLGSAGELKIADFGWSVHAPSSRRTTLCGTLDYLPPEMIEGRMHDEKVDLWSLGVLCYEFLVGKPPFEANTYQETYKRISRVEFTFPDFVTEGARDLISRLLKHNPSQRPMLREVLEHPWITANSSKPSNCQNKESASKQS

Aurora kinase B = Aurora kinase B (Homo sapiens, UniProt Q96GD4); type: functional
[8] = molecular target: T1, High affinity choline transporter 1 (Homo sapiens, UniProt Q9GZV3); experiment: human choline transporter potentiators, potency – cell-based, 10-point CRC, membrane potential dye, dose response (AID 602376); type: functional
T1 sequence (Q9GZV3 whole entry): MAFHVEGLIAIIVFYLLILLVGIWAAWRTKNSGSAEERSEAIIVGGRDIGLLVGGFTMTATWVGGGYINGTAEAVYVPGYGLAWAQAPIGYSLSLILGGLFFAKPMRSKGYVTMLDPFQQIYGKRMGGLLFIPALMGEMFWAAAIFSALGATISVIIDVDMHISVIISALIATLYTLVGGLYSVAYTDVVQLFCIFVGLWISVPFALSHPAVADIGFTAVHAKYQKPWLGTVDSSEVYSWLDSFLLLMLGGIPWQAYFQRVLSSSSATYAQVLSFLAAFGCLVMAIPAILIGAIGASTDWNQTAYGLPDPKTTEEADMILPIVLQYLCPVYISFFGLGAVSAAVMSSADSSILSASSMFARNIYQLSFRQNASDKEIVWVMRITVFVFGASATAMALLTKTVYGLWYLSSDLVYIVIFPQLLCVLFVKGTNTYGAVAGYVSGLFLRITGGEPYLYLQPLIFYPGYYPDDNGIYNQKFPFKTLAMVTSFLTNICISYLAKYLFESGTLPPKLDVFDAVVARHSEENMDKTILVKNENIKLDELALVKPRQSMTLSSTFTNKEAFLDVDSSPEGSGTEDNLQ

Troponin, cardiac muscle = Troponin, cardiac muscle (Homo sapiens, UniProt P19429+P45379+P63316); experiment: Fluorescence-based biochemical high throughput dose response assay for activators of the calcium sensitivity of cardiac Regulated Thin Filaments (RTF). [Related pubchem assays (depositor defined):AID493008, AID493018, AID504382, AID504383]; type: protein-complex assay
[9] = molecular target: Multidrug resistance protein CDR2 (Candida albicans (strain SC5314 / ATCC MYA-2876) (Yeast), UniProt P78595); experiment: inhibition of Nile Red efflux via Candida CDR2 – S. cerevisiae AD1-8u, singleplex, Cherry Pick1 hits, dose response (AID 588604); type: functional
Mucolipin-3 = molecular target: T2, Mucolipin-3 (Homo sapiens, UniProt Q8TDD5); experiment: Fluorescence counterscreen assay for […] agonists: dose response cell-based high-throughput screening assay to identify agonists of the transient receptor potential channel ML3 (TRPML3). [Related pubchem assays: 1424, 1448 ]; type: functional
T2 sequence (Q8TDD5 whole entry): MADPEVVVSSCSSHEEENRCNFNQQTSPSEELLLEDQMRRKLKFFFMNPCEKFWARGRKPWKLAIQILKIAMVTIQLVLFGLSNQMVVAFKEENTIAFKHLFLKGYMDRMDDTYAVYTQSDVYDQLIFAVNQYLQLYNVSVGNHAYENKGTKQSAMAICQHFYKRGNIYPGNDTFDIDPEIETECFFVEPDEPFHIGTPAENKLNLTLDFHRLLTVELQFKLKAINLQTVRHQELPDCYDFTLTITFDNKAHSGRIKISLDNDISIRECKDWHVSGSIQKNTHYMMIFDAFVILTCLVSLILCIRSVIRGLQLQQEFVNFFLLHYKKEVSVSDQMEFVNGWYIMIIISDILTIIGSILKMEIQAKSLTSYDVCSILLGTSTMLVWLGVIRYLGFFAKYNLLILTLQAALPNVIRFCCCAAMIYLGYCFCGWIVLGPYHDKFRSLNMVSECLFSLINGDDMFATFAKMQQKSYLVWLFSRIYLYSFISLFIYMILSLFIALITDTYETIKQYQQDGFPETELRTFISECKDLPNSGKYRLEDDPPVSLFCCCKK

Ion channel NompC = Ion channel NompC (Danio rerio, UniProt Q7T1G6); experiment: Dose response cell-based high-throughput screening assay for agonists of the transient receptor potential channel N1 (TRPN1). [Related pubchem assays (depositor defined):AID1424, AID1448]; type: functional
[10] = molecular target: Leucine-rich repeat serine/threonine-protein kinase 2 (Homo sapiens, UniProt Q5S007); type: functional;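 note: value from a broad kinome-wide panel profiling study in which LRRK2 was one of the kinases tested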
Leucine-rich repeat serine/threonine-protein kinase 2, sequence (Q5S007 whole entry): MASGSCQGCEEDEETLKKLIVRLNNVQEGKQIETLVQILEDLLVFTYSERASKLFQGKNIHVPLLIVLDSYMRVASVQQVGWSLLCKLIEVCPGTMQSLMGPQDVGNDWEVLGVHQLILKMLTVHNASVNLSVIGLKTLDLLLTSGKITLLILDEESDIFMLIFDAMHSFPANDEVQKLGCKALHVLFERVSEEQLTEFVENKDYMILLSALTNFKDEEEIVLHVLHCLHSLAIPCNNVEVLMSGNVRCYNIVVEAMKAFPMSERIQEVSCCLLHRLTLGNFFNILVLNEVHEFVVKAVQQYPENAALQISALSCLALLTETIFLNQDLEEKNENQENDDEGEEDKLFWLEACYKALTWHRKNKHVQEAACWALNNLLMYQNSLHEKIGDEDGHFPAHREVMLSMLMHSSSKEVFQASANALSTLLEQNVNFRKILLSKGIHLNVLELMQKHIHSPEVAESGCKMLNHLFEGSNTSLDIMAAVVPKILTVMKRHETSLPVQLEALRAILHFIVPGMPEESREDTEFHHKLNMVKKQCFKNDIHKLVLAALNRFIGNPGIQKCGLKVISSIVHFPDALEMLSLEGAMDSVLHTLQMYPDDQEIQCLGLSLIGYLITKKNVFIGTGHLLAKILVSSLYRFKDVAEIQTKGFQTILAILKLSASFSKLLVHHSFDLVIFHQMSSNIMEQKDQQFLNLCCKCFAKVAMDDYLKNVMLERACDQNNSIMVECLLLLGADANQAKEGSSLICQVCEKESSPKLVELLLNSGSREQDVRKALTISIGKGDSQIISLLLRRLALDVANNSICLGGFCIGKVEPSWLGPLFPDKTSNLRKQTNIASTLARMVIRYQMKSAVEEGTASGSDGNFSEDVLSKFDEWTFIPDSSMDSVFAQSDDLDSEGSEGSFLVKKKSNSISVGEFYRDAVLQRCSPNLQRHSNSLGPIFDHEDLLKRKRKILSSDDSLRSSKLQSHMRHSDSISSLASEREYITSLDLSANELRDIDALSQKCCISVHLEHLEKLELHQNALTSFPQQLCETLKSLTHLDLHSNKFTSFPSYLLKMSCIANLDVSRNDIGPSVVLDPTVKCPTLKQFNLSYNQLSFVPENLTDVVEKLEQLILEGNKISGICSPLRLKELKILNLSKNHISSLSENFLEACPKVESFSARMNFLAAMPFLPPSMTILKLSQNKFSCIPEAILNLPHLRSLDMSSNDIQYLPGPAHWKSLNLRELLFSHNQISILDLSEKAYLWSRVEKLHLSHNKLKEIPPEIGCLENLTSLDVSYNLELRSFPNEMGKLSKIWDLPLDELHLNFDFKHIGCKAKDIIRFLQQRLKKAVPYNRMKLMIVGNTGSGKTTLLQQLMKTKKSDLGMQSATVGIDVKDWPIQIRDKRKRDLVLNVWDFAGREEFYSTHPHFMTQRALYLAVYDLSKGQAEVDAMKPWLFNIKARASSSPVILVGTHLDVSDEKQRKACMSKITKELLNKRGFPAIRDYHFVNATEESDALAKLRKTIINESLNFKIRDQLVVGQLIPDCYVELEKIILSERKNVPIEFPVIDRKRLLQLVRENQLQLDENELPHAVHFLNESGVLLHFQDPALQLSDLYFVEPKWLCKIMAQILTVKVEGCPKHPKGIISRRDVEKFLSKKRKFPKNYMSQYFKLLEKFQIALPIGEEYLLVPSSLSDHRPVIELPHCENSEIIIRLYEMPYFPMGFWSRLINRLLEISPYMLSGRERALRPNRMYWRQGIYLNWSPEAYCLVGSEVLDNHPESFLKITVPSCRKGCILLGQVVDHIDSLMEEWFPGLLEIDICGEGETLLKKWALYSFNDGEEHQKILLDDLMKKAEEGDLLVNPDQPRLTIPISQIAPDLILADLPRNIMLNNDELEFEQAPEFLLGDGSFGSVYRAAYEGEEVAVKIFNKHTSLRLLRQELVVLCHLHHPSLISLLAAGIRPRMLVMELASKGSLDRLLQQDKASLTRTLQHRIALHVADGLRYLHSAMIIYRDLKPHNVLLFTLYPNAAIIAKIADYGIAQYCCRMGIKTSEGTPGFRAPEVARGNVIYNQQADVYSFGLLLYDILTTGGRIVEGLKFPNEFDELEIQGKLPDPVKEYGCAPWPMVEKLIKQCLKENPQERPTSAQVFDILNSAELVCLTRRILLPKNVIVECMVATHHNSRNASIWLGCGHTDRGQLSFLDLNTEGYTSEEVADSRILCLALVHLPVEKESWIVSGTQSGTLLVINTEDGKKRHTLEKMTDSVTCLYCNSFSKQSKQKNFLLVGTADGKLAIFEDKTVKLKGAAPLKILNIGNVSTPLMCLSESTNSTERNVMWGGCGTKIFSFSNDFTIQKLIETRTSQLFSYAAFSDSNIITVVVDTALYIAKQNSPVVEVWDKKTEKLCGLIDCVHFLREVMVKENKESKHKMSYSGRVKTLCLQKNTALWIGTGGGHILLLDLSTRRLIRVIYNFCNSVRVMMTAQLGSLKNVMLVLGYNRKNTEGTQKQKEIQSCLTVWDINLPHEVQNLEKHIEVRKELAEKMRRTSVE

[11] = molecular target: Cyclin-dependent kinase 9 (Homo sapiens, UniProt P50750); type: functional;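 note: value from the CDK9 entry of a kinome-spanning kinase panel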
Cyclin-dependent kinase 9, sequence (P50750 whole entry): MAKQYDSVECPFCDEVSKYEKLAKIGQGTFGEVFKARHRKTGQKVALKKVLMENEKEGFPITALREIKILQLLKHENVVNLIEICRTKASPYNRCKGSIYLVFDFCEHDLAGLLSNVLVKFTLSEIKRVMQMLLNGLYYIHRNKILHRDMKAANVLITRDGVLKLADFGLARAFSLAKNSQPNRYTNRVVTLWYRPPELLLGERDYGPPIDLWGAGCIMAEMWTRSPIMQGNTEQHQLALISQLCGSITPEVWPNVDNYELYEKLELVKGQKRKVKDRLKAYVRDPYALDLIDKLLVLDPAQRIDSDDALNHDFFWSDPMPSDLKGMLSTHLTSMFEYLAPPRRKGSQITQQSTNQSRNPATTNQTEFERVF

[12] = molecular target: Dual specificity protein kinase CLK4 (Homo sapiens, UniProt Q9HAZ1); type: functional
[13] = molecular target: cAMP-dependent protein kinase catalytic subunit PRKX (Homo sapiens, UniProt P51817); type: functional
[14] = molecular target: Hepatocyte growth factor receptor (Homo sapiens, UniProt P08581); type: functional;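 note: kinase panel profiling across the kinome, with MET as the panel member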
[15] = molecular target: Leukocyte tyrosine kinase receptor (Homo sapiens, UniProt P29376); experiment: Navigating the Kinome. Panel member name: LTK; type: functional
[16] = molecular target: Serine/threonine-protein kinase Chk1 (Homo sapiens, UniProt O14757); type: functional;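 note: measured as one member of a kinome-wide kinase profiling panel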
Serine/threonine-protein kinase Chk1, sequence (O14757 whole entry): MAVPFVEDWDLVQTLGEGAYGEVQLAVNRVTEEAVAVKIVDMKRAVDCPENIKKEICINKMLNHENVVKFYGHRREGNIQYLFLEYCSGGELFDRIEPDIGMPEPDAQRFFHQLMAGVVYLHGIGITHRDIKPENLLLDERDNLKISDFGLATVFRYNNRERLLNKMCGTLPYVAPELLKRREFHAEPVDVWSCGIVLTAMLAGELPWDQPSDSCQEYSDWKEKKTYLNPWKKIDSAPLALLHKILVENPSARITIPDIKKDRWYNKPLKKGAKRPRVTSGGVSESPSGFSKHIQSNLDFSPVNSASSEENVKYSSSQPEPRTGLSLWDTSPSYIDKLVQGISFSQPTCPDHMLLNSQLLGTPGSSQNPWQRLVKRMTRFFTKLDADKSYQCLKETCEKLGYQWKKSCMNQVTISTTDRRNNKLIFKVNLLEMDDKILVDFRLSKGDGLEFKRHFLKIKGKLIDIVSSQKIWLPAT

[17] = Vero cell cytotoxicity, dose response, cytotoxicity control for M. tuberculosis growth inhibitor project, Vero cells, purified and synthesized compounds, set 4 (AID 504854); type: functional; conditions: Mycobacterium tuberculosis
[18] = THP-1 cell cytotoxicity, dose response, cytotoxicity control, set 3 (AID 504852); type: functional; conditions: Mycobacterium tuberculosis
[19] = THP-1 cell cytotoxicity, cytotoxicity control, set 4 (AID 504911); type: functional; conditions: Mycobacterium tuberculosis
[20] = molecular target: Glycogen synthase kinase-3 beta (Homo sapiens, UniProt P49841); experiment: inhibition of human GSK3B activity – biochemical, microfluidics, dry powder samples, set 2, dose response (AID 623989); type: functional
[21] = molecular target: Tyrosine-protein kinase Lck (Homo sapiens, UniProt P06239); type: functional;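 note: lck was assayed as one member of a kinase panel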
[22] = molecular target: Vascular endothelial growth factor receptor 2 (Homo sapiens, UniProt P35968); type: functional
[23] = cAMP pathway inhibition in counterscreen cell line – TR-FRET cAMP detection, counter-screen for MC4R biased antagonist project, dose response (AID 602305); type: functional, cell-based;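 note: U2OS cells stimulated with forskolin near its EC80 as the cAMP inducer; potency is for inhibition of forskolin-stimulated cAMP signaling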
Melanocortin receptor 4 = Melanocortin receptor 4 (Homo sapiens, UniProt P32245); experiment: inhibitors of MC4R cAMP signaling – cell-based, TR-FRET, biased antagonists, dose response (AID 602298); type: functional;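 note: antagonist potency against agonist-stimulated cAMP production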
Melanocortin receptor 4, sequence (P32245 whole entry): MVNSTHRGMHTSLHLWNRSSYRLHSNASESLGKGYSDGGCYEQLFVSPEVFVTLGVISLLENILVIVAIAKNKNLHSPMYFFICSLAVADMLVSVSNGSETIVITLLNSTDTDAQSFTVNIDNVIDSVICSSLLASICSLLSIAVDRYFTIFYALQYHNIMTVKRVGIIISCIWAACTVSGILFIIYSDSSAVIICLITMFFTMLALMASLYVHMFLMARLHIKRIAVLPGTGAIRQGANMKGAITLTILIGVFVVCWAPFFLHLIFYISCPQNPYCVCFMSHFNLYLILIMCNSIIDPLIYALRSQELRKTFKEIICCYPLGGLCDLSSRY

## Cc1noc(C)c1NC(=O)Nc1ccc2c(c1)C(=O)N([C@@H](C)CO)C[C@@H](C)[C@H](CN(C)S(=O)(=O)c1ccc(F)cc1)OCCCC[C@H](C)O2
[1]
  AC50: 0.609 µM (active)
[2]
  AC50: 0.697 µM (active)
[3]
  AC50: 0.57 µM (active)
Erythrocyte
  AC50: 0.697 µM (active)

## CC(C)(C)c1cnc(CSc2cnc(NC(=O)C3CCNCC3)s2)o1 [BMS-387032]
[4]
  Ki: > 3.98 µM (inactive)
[5]
  Ki: > 3.98 µM (inactive)

## CCOc1ccc(Oc2c(Cl)c(N3CCCCC3)nn(Cc3cccc4ccccc34)c2=O)cc1
[6]
  IC50: > 20 µM (inactive)
[7]
  IC50: > 20 µM (inactive)

## Cc1ccc(-c2nc3ccc(Br)cc3c(C(=O)O)c2CC(=O)O)cc1C
Aurora kinase A
  Ki: 0.0631 µM (active)
Aurora kinase B
  Ki: 0.126 µM (active)

## CC(C)COP(=O)(OCC(C)C)C(Nc1ccccc1)c1ccc(F)cc1 (stereo not given)
[8]
  EC50: 12.2 µM (active)

## C=CCn1c(=O)[nH]c2nc3cc(/N=C/N(C)C)c(C)cc3nc2c1=O
Troponin, cardiac muscle
  EC50: 1.86 µM (active)
[9]
  EC50: 1.62 µM (active)
Mucolipin-3
  EC50: 5.89 µM (active)
Ion channel NompC
  EC50: 3.27 µM (active)

## Cc1csc2nc(N)nn12
[10]
  Ki: 39.8 µM (active)
[11]
  Ki: 50.1 µM (active)
[12]
  Ki: 31.6 µM (active)
[13]
  Ki: 79.4 µM (active)
[14]
  Ki: 79.4 µM (active)
[15]
  Ki: 79.4 µM (active)
[16]
  Ki: 31.6 µM (active)

## CNC(=O)CSc1nc2ccccc2c(=O)[nH]1
[17]
  CC50: > 100 µM (active)
[18]
  CC50: > 100 µM (active)
[19]
  CC50: > 100 µM (active)

## Cc1ccc(S(=O)(=O)N2CCN(CC(=O)N/N=C/c3ccccn3)CC2)cc1
[20]
  AC50: 13.7 µM (active)

## O=C(Nc1cccc(-c2nc3sccn3c2-c2ccnc(Nc3ccccc3Cl)n2)c1)c1ccccc1
[21]
  Ki: 3.98 µM (active)
[22]
  Ki: 0.794 µM (active)

## CN(C(=O)COC(=O)CNC(=O)c1ccc(Cl)cc1Cl)c1ccccc1
[23]
  IC50: > 64.6 µM (inactive)
Melanocortin receptor 4
  IC50: > 64.6 µM (inactive)
